According to PubChem BioAssay (NCI):
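48-hour exposure; five concentrations; linearly interpolated endpoints. At the GI50, growth is halved. TGI denotes the concentration required for complete inhibition of growth.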 Where a SMILES comes first, the peptide text is derived from it. [ ]: non-standard residue; d: D form. The star is where a group is joined. mTyr = N[CH](Cc1cccc(O)c1)C(=O)O; Cbz = O=C(OCc1ccccc1)*; OBn = c1ccc(CO*)cc1

Key:
Experiment in all cases: NCI tumour cell line growth inhibition, 48 h
K-562 leukemia = system: K-562 leukemia
ACHN renal = system: ACHN renal
HL-60(TB) leukemia = system: HL-60(TB) leukemia
HOP-62 NSCLC = system: HOP-62 NSCLC
A549 NSCLC = system: A549 NSCLC
RPMI-8226 leukemia = system: RPMI-8226 leukemia
SK-MEL-2 melanoma = system: SK-MEL-2 melanoma
OVCAR-5 ovarian = system: OVCAR-5 ovarian

SMILES	TGI (K-562 leukemia) [µM]	TGI (ACHN renal) [µM]	TGI (HL-60(TB) leukemia) [µM]	TGI (HOP-62 NSCLC) [µM]	TGI (A549 NSCLC) [µM]	TGI (RPMI-8226 leukemia) [µM]	TGI (SK-MEL-2 melanoma) [µM]	TGI (OVCAR-5 ovarian) [µM]	GI50 (K-562 leukemia) [µM]	GI50 (ACHN renal) [µM]	GI50 (RPMI-8226 leukemia) [µM]	GI50 (HL-60(TB) leukemia) [µM]	GI50 (HOP-62 NSCLC) [µM]	GI50 (A549 NSCLC) [µM]	GI50 (SK-MEL-2 melanoma) [µM]	GI50 (OVCAR-5 ovarian) [µM]
O[C@H]1[C@H](O)[C@@H](O)[C@@]2(O)C[C@@H](O)[C@@H]1N2	> 100	> 100	> 100	> 100	> 100	–	–	–	–	–	–	–	–	–	–	–
COc1ccc(N=C2C(=Nc3ccc(OC)cc3)N(c3ccccc3)C(=S)N2N=C=C2Sc3ccccc3N2C)cc1	> 100	> 100	–	> 100	> 100	> 100	> 100	> 100	–	–	–	–	–	–	–	–
Brc1c(C#CCC2CCCCC2)ccc(C#CCC2CCCCC2)c1Br	> 100	> 100	> 100	–	> 100	> 100	> 100	> 100	–	–	–	–	–	–	–	–
O=C(/C=C/c1csc(-c2ccccc2)n1)NCc1ccc(C(=O)NCc2ccccc2)cc1	> 100	> 100	–	32.8	> 100	> 100	> 100	> 100	–	–	–	–	–	–	–	–
C#CCOCC12C=CC(O1)C1C(=O)OCC12 (stereo unspecified)	> 100	> 100	> 100	> 100	> 100	> 100	–	> 100	–	–	–	–	–	–	–	–
O=C1NC(=S)N(c2ccccc2)C1=O	> 100	> 100	> 100	> 100	> 100	> 100	> 100	> 100	–	–	–	–	–	–	–	–
CSCCC(NC(=O)Cc1ccc(C(=O)c2ccccc2)cc1)C(=O)O (stereo unspecified)	> 100	> 100	> 100	> 100	> 100	–	> 100	> 100	–	–	–	–	–	–	–	–
COc1ccc(/C=C2\CN(C)C/C(=C\c3ccc(OC)c(OC)c3OC)C2=O)c(OC)c1OC	–	0.565	0.044	0.84	1.07	0.211	2.4	0.656	–	–	–	–	–	–	–	–
Cc1nc(-c2ccc(N=Cc3ccc(N(CCOS(C)(=O)=O)CCOS(C)(=O)=O)cc3C)cc2)cs1	> 100	19.2	47.3	> 100	> 100	> 100	> 100	> 100	–	–	–	–	–	–	–	–
CC1OC(OC2C(OC(=O)[C@@H]3CC(C)(C)C[C@H]4C5=CC[C@@H]6[C@@]7(C)C[C@H](O)[C@H](OC8OC(CO)C(O)C(O)C8O)[C@@](C)(CO)[C@@H]7[C@H](O)C[C@@]6(C)[C@]5(C)CC[C@@]34C)OCC(O)C2O)C(O)C(O)C1O (stereo partly specified)	> 7.5	> 7.5	> 7.5	> 7.5	–	–	> 7.5	> 7.5	–	–	–	–	–	–	–	–
Cc1ccc2c(=O)cc(-c3ccc(-c4ccccc4)s3)[nH]c2n1	> 100	> 100	> 100	> 76.8	> 100	> 100	> 100	> 100	–	–	–	–	–	–	–	–
Cc1ccc2nc(NC(=O)/C(Cc3nc4ccc(Cl)cc4[nH]c3=O)=N\NC(C)(C)C)sc2c1	> 100	> 100	> 100	–	> 100	> 100	> 100	> 100	–	–	–	–	–	–	–	–
CC(C)C1=CC23CCC4C(C)(C(=O)O)CCCC4(C)C2CC1C1C(=O)N(c2ccc(C(=O)O)cc2)C(=O)C13 (stereo unspecified)	> 100	> 100	> 100	> 100	> 100	> 100	> 100	–	–	–	–	–	–	–	–	–
CCC1(COC(NC(=O)c2ccccc2)(C(F)(F)F)C(F)(F)F)COC1	> 100	> 100	> 100	–	> 100	> 100	> 100	> 100	–	–	–	–	–	–	–	–
CCOc1ccc(-n2nnc3c(N)nc(N)nc32)cc1	> 100	> 100	–	> 100	> 100	> 100	> 100	> 100	–	–	–	–	–	–	–	–
O=C(CC(=O)Nc1ccccc1)N/N=C/c1cc(N=Nc2ccc(Br)cc2)ccc1O	> 10	–	6	> 10	> 10	> 10	–	–	–	–	–	–	–	–	–	–
COc1cc([C@@H]2c3cc(O)c(OC)cc3C=C(C(N)=O)[C@H]2C(N)=O)ccc1O	> 100	> 100	> 100	> 100	> 100	> 100	–	> 100	–	–	–	–	–	–	–	–
CC(C)[C@@H]1ON1C(C)c1ccccc1 (stereo partly specified)	> 100	> 100	> 100	> 100	> 100	> 100	–	> 100	–	–	–	–	–	–	–	–
Fc1ccccc1C1SCc2nc3cc4ccccc4cc3n21 (stereo unspecified)	> 100	> 100	> 100	> 100	> 100	> 100	> 100	> 100	–	–	–	–	–	–	–	–
CCOc1cc(NC(C)=O)ccc1C(=O)NN1C(=O)C(Cl)C1c1ccco1 (stereo unspecified)	51.3	29.1	43.4	35.7	38.8	45.5	37.3	36.4	–	–	–	–	–	–	–	–
OC(c1ccc(-c2ccccc2)cc1)C(F)(F)c1nc2ccccc2o1 (stereo unspecified)	> 61.3	> 100	> 74.1	> 73.6	> 100	> 100	> 100	> 100	–	–	–	–	–	–	–	–
COc1nc(N)c(N=CC(OC(C)=O)C(OC(C)=O)C(COC(C)=O)OC(C)=O)c(=O)n1C (stereo unspecified)	> 100	> 100	> 100	> 100	> 100	> 100	> 100	> 100	–	–	–	–	–	–	–	–
CC1OC(O[C@H]2/C=C/C=C/C=C/C=C/C=C/C=C/C=C/[C@H](C)[C@@H](O)[C@@H](C)[C@H](C)OC(=O)CC(O)CC(O)CCC(O)C(O)CC(O)C[C@]3(O)C[C@H](O)C(C(=O)O)C(C2)O3)C(O)[C@H](N)C1O (stereo partly specified)	> 100	3.18	10.9	3.11	3.11	59	12	16.8	30.1	1.68	16.6	3.79	1.57	1.67	3.9	3.88
CCN(c1cccc(NC(=S)Nc2ccccc2N(CC)c2cc(-c3ccccc3)no2)c1)c1cc(-c2ccccc2)no1	> 100	> 100	> 100	> 100	> 100	> 100	> 100	> 100	–	–	–	–	–	–	–	–
COC12c3ccccc3-c3ccccc3C1[C@H]1C(=O)OC(=O)[C@H]12 (stereo partly specified)	> 10	> 10	> 10	> 10	–	> 10	> 10	> 10	–	–	–	–	–	–	–	–

SMILES	TGI (K-562 leukemia) [µM]	TGI (ACHN renal) [µM]	TGI (HL-60(TB) leukemia) [µM]	TGI (HOP-62 NSCLC) [µM]	TGI (A549 NSCLC) [µM]	TGI (RPMI-8226 leukemia) [µM]	TGI (SK-MEL-2 melanoma) [µM]	TGI (OVCAR-5 ovarian) [µM]	GI50 (K-562 leukemia) [µM]	GI50 (ACHN renal) [µM]	GI50 (RPMI-8226 leukemia) [µM]	GI50 (HL-60(TB) leukemia) [µM]	GI50 (HOP-62 NSCLC) [µM]	GI50 (A549 NSCLC) [µM]	GI50 (SK-MEL-2 melanoma) [µM]	GI50 (OVCAR-5 ovarian) [µM]
COc1ccc(-n2cnc3c(NC(CCSC)C(=O)O)ncnc32)cc1 (stereo unspecified)	> 100	> 100	–	> 100	> 100	> 100	> 100	> 100	–	–	–	–	–	–	–	–
Cc1ccc(N=Nc2c(O)c(C(=O)Nc3ccccc3)cc3ccccc23)c([N+](=O)[O-])c1	> 100	> 100	–	> 100	> 100	> 100	> 100	> 100	–	–	–	–	–	–	–	–
COC(=O)c1cnn2c1n[n+]([O-])c1ccccc12	> 100	> 100	> 100	> 100	> 100	> 100	> 100	> 100	–	–	–	–	–	–	–	–
CC(=O)OCC1OC(n2c(=O)[nH]c(=O)c3sccc32)C(Br)C1OC(C)=O (stereo unspecified)	> 100	> 100	> 100	> 100	> 100	> 100	> 100	> 100	–	–	–	–	–	–	–	–
COC(=O)C(Cc1cccc(O)c1)NC(=O)C(CC(=O)OCc1ccccc1)NC(=O)OCc1ccccc1 (stereo unspecified) (Cbz-Asp(OBn)-[mTyr]-OMe; configuration not given here)	> 100	> 100	> 100	> 100	> 100	> 100	> 100	> 100	–	–	–	–	–	–	–	–
CC(C)=C/C=C1/CS(=O)(=O)C=C1C	> 100	> 100	> 100	> 100	> 100	> 100	> 100	> 100	–	–	–	–	–	–	–	–
Cc1n[nH]c(=O)n1/N=C/c1ccc([N+](=O)[O-])o1	> 100	28.7	–	> 64.4	35.7	> 58.3	> 53.8	53.1	–	–	–	–	–	–	–	–
COc1cccc(N2C(=O)C3c4[nH]c5ccc(C)cc5c4C4CCC(C(C)(C)C)CC4C3C2=O)c1 (stereo unspecified)	7.67	> 10	4.21	> 10	> 10	> 10	> 10	7.81	–	–	–	–	–	–	–	–
FC(F)(F)c1ccc2nc(Sc3ccccn3)cnc2c1	> 100	52.9	31.7	> 100	> 100	–	31.1	> 100	–	–	–	–	–	–	–	–
COc1cc(C(c2ccc3c(c2)OCO3)N2C(=O)CCC2C(=O)O)cc(OC)c1OC (stereo unspecified)	> 100	> 100	> 100	> 100	> 100	> 100	> 100	> 100	–	–	–	–	–	–	–	–
COC(=O)c1c(OC(C)=O)ccc2c1c1c(OC(C)=O)c3ccccc3c(OC(C)=O)c1n2Cc1ccccc1	> 50	47.1	26.6	25.4	34.2	5.4	6.81	19.8	–	–	–	–	–	–	–	–
CC(C)(CC(O)C#N)/[N+]([O-])=[N+](\[O-])C(C)(C)CC(O)C#N (stereo unspecified)	42.5	74.5	–	37.9	> 100	44.8	> 100	97.2	–	–	–	–	–	–	–	–
Cc1ccc(/C(O)=C/C(=O)C(=O)NN=C(c2ccccc2)c2ccccc2)cc1	> 100	> 100	> 100	–	> 100	> 100	> 100	> 100	–	–	–	–	–	–	–	–
O=C(CSC1=NCCN1)Nc1ccccc1	> 100	53.8	–	> 100	> 100	> 100	44.5	> 100	–	–	–	–	–	–	–	–
CCOP(=O)(OCC)C(C)(CC)NC (stereo unspecified)	> 100	> 100	> 100	> 100	> 100	–	> 100	> 100	–	–	–	–	–	–	–	–
c1ccc2c3c([nH]c2c1)C1CCCN1CC3 (stereo unspecified)	> 10	> 10	> 10	> 10	–	> 10	> 10	> 10	–	–	–	–	–	–	–	–
CNc1ccc(N)cc1C(=O)N1CCC[C@H]1CO	–	> 100	> 100	> 100	> 100	–	> 100	> 100	–	–	–	–	–	–	–	–
CC(C)(C)c1cc(C2COC(c3cc(C(C)(C)C)c(O)c(C(C)(C)C)c3)CO2)cc(C(C)(C)C)c1O (stereo unspecified)	> 100	> 100	–	> 100	> 100	> 100	> 100	> 100	–	–	–	–	–	–	–	–
Brc1ccc(-c2cn3ccncc3n2)cc1	> 100	> 100	–	> 100	> 100	> 100	> 100	> 100	–	–	–	–	–	–	–	–
COc1ccc2c(c1)CCN1CCc3cc(OC)c(OC)cc3CC21 (stereo unspecified)	> 100	> 100	–	–	> 100	> 100	–	> 100	–	–	–	–	–	–	–	–
COc1ccc(CSc2ccccc2Cn2cccc2)cc1OC	> 100	> 100	> 100	> 100	> 100	> 100	–	> 100	–	–	–	–	–	–	–	–
O=c1onc2c3ccccc3ncn12	> 100	> 100	–	> 100	> 100	> 100	> 100	> 100	–	–	–	–	–	–	–	–
OC1(c2ccccc2)CSC2=Nc3ccccc3C3CCN1N23 (stereo unspecified)	> 100	54.1	71.1	50	74.3	–	32.1	32	–	–	–	–	–	–	–	–
O=C(O)CNC(=O)c1c2ccccc2nc2ccccc12	> 100	> 100	–	> 100	> 100	> 100	> 100	> 100	–	–	–	–	–	–	–	–
C/C(=C/CC[C@]1(CO)CC[C@]2(CO)[C@H](CC[C@@H]3[C@@]4(C)CC[C@H](OC5OCC(O)C(O)C5OC5OC(CO)C(O)C(O)C5O)C(C)(C)[C@@H]4CC[C@]32C)[C@H]1O)CO (stereo partly specified)	> 100	> 100	> 100	> 100	> 100	> 100	–	> 100	–	–	–	–	–	–	–	–
